Results published in patent US9746463B2 (THE TRUSTEES OF COLUMBIA UNIVERSITY IN THE CITY OF NEW YORK, priority 2006, dated 2017).
Ends that are not written are not given here.

Assays:
[1] = Osteocalcin subcutaneous infusion in wt mice: body weight and gonadal fat pad mass; format: in vivo, mouse
Description: (FIG. 13A) Indicated doses of recombinant osteocalcin or PBS were infused subcutaneously for 28 days in wt mice. Body weight was recorded at indicated days. (FIG. 13B) Gonadal fat pad mass was measured after 28 days.
In another in vivo experiment, the effect of uncarboxylated osteocalcin on body weight and fat pad mass was monitored (FIG. 13). Wild type mice were infused subcutaneously for 28 days with PBS or uncarboxylated osteocalcin at 0.3, 1 or 3 ng/hour. […] (FIG. 13) Gonadal fat pad mass, measured after 28 days, decreased by about %18 with 3 ng/hour uncarboxylated osteocalcin treatment.

[2] = system: Adiponectin expression in WT adipocytes; test: Adiponectin expression in adipocytes treated with osteocalcin (real time PCR); format: cell-based, mouse; details: wild type adipocytes treated for 4 hours, real time PCR, vs vehicle
Description: FIG. 7A-O. Esp−/− Mice Are a Model of Increased Osteocalcin Bioactivity. (FIGS. 7A-G) Comparison between 6-week-old WT, Esp−/, Ocn+/−, and Esp−/−; Ocn+/− mice. (FIG. 7A) Blood glucose levels. (FIG. 7B) Serum insulin levels. (FIG. 7C) Serum adiponectin levels. (FIG. 7D) GTT. (FIG. 7E) ITT. (FIG. 7F) GSIS test. (FIG. 7G) Quantification of the number of Ki67-immunoreactive cells in pancreatic islets. […] (FIG. 7K) Expression of Adiponectin in WT adipocytes cultured in presence of vehicle or of 1 ng/ml of commercially available carboxylated osteocalcin (Immunotopics) or bacterially produced uncarboxylated osteocalcin. (FIG. 7L) Expression of Insulin and Cyclin D1 in WT islets cultured in presence of 0.3 ng/ml of bacterially produced uncarboxylated osteocalcin or vehicle. (FIG. 7M) Metabolic parameters and total serum osteocalcin levels in control and obese patients. (FIG. 7N-O) Quantification of carboxylated osteocalcin (HA-bound osteocalcin) in control and obese patients. In (FIGS. 7A)-(C) and (FIGS. G)-(L): *p<0.05 versus WT (Student's t test); in (FIG. D)-(F), °p<0.05 versus WT and *p % 0.001 versus WT (ANOVA followed by post hoc analysis).
FIG. 15. […] Wt adipocytes were treated for 4 hours with recombinant full-length osteocalcin (1-46) or a truncated form (1-36) or vehicle. Adiponectin expression was then quantified by real time PCR.
Primary adipocytes were isolated from epididymal fat pads by collagenase digestion. Briefly, minced adipose tissue was digested by 1 mg/ml collagenase P in KRP Buffer (20 mM HEPES, 120 mM NaCl, 6 mM KCl, 1.2 mM MgSO4, 1 mM CaCl2, 0.6 mM Na2HPO4, 0.4 mM NaH2PO4, 2.5 mM D-glucose, 2% BSA, pH 7.4) for 1 h at 37° C. The isolated cells were washed twice with KRP Buffer before being cultured in αMEM/1% FBS at 37° C. in 5% CO2.
Gene expression analyses. All gene expression analyses were performed using real time PCR. DNAse I-treated total RNA was converted to cDNA with the SuperScript III kit (Invitrogen). Real-time PCR were performed using the Taq SYBR Green Supermix with ROX (Biorad) on an MX3000 instrument (Stratagene); beta-actin amplification was used as an internal reference for each sample. All primers were from SuperArray.
A fragment of uncarboxylated osteocalcin is biologically active. Experiments were performed to test whether truncated osteocalcin was as effective as full-length uncarboxylated osteocalcin in stimulating adiponectin secretion from mouse adipocytes in vitro. Wild type adipocytes were treated for 4 hours with recombinant full-length osteocalcin (1-46) or a truncated form (1-36) (having a deletion of the first ten amino acids from the C-terminal end) or vehicle. Adiponectin expression was then quantified by real time PCR. […]

## uncarboxylated osteocalcin: Recombinant mouse osteocalcin bacterially produced as GST fusion, cleaved with thrombin; completely undercarboxylated at all three sites (YLGASVPSPDPLEPTREQCELNPACDELSDQYGLKTAYKRIYGITI; not fully specified; ends and bridges not checked; UniProt P86546 50-95, looked up)
[1]; 3 ng/hour, measured after 28 days
  decrease of gonadal fat pad mass: ~18%
[1]; indicated doses infused subcutaneously for 28 days (figure legend)
  fat mass: decreases fat mass
[1]; the other doses (0.3, 1 ng/hour), 28 days
  gonadal fat pad mass: did not significantly decrease fat pad mass
[1]; wild type mice, 0.3, 1 or 3 ng/hour subcutaneously for 28 days, highest dose most effective
  body weight: slightly reduced
[2]
  increase of Adiponectin expression: ~1.5 fold
